Reference: paper PMC4666645 (PLoS Pathogens, 2015)
Counter-ions that a name gives are not always drawn.

Key:
[1] = target: T1, Hco-L-AChR-2 (Hco-UNC-38, Hco-UNC-63, Hco-UNC-29.1) (Haemonchus contortus, UniProt D6MYE9+D6MYF3+D6MYF4); test: Two-electrode voltage-clamp on Xenopus oocytes expressing Hco-L-AChR-2; assay type: cell-based; conditions: for Response to agonist: 100 μM agonist
T1 sequence (D6MYF3 20-512): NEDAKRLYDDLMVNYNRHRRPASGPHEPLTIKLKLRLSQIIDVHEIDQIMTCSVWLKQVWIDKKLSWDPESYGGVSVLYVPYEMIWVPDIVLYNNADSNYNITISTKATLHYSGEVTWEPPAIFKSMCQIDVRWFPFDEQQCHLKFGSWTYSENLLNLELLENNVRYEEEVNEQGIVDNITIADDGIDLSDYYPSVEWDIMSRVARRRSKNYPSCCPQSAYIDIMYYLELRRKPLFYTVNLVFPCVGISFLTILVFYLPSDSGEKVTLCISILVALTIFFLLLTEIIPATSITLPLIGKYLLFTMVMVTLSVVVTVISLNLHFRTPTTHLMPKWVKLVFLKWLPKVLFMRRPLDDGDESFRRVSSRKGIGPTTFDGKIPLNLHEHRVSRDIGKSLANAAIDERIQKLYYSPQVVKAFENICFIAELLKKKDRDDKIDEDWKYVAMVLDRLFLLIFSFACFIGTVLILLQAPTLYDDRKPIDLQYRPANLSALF
T1 sequence (D6MYF4 22-504): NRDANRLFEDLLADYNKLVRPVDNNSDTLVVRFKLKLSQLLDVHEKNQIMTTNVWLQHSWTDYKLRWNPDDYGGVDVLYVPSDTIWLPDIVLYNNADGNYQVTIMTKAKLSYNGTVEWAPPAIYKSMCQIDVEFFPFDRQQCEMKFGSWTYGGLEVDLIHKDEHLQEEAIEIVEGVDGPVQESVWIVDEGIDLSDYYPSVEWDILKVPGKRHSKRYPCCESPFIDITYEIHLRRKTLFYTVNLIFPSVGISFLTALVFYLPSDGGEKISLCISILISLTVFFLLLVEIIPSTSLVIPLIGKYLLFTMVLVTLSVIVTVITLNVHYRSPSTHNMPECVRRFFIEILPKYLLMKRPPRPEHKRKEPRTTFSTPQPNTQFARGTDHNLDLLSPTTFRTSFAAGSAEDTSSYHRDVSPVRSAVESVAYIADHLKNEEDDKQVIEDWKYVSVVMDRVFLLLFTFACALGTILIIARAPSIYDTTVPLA
T1 sequence (D6MYE9 21-498): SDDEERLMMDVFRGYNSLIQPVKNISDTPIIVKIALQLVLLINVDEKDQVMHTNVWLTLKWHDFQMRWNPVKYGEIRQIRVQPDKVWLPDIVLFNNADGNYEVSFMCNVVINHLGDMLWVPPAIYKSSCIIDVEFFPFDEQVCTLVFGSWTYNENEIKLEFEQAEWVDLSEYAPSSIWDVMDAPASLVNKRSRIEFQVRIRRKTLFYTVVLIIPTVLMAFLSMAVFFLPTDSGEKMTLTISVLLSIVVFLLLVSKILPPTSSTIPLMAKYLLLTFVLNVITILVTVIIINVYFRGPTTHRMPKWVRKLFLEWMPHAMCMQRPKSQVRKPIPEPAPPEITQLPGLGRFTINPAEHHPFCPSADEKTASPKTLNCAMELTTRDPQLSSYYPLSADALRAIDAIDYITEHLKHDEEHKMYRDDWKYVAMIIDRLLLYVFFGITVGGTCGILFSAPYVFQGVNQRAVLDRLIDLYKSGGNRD
From the text: H. contortus and P. equorum acr-26 and acr-27 cDNAs were PCR-amplified using primers containing a restriction site in order to be sub-cloned into the expression vector pTB207 that is suitable for in vitro transcription. Primers are listed in S3 Table. The resulting plasmids were linearized with the NheI restriction enzyme (Fermantas) and used as templates for cRNA synthesis using the T7 mMessage mMachine kit (Ambion). Xenopus laevis ovaries were obtained from the University of Rennes, France (CRB Xenope) and defolliculated using 2 mg/ml collagenase type II (Gibco) in the incubation solution containing: 100 mM NaCl, 2 mM KCl, 1.8 mM CaCl2.2H2O, 1 mM MgCl2.6H2O, 5 mM HEPES, 2.5 mM C3H3NaO3, pH 7.5, supplemented with penicillin 100 U/mL and streptomycin 100 μg/mL). The oocytes were injected in the animal pole with a total volume of 36 nL of cRNA mix containing 50 ng/μL of each cRNA in RNase-free water using the Drummond nanoject II microinjector. Microinjected oocytes were kept at 20°C in incubation medium for 4 days to allow the receptors expression. Two-electrode voltage-clamp recordings were carried out using an Oocyte Clamp OC-725C amplifier (Warner instrument) in oocytes being voltage-clamped at -60mV. All agonist preparations were prepared with recording buffer (100 mM NaCl, 2.5 mM KCl, 1 mM CaCl2.2H2O, 5 mM HEPES, pH 7.3). Currents were recorded and analyzed using the pCLAMP 10.4 package (Molecular Devices).
Supplementary file ppat.1005267.s003.tif: S3 Fig Pharmacological profiles of Hco-L-AChR-1 and Hco-L-AChR-2. […] The bars indicate the time period of the agonist application. Functional expression of Hco-L-AChR-1 requires the co-expression of Hco-UNC-38; Hco-UNC-63; Hco-UNC-29.1 and Hco-ACR-8 AChR subunits with the ancillary proteins Hco-RIC-3.1; Hco-UNC-50 and Hco-UNC-74 whereas Hco-L-AChR-2 requires the co-expression of Hco-UNC-38; Hco-UNC-63 and Hco-UNC-29.1 AChR subunits with the ancillary proteins Hco-RIC-3.1; Hco-UNC-50 and Hco-UNC-74. (C) Scatter plot (mean ± SEM) of normalized currents elicited by 100 μM Mor on Hco-26/27, Hco-L-AChR-1 and Hco-L-AChR-2. […]

[2] = test system: native C. elegans L-AChR; conditions: cited from earlier work

Compound | EC50 [1] [µM] | Response to agonist [1] | EC50 [2] [µM]
Cc1ccsc1/C=C/C1=NCCCN1C [Mor, morantel] | 3.2 ± 1.2 | less activated | –
CN1CCCN=C1/C=C/c1cccs1 [Pyr, pyrantel] | – | highly responsive | –
c1ccc([C@H]2CN3CCSC3=N2)cc1 [Lev, (-)-tetramisole hydrochloride] | – | – | 10
